Like-named read-outs stand apart in the source and are kept apart here.
Key:
NCI-H322M = experiment: NCI 60 panel: NCI-H322M (Non-Small Cell Lung Cancer); format: cell-based
LOX IMVI = experiment: NCI 60 panel: LOX IMVI (Melanoma); format: cell-based
FaDu = experiment: Complementary DBM in vitro profiling: FaDu (Hypopharyngeal Cancer); format: cell-based
Procedure: (§1) The compounds described herein are effective for inhibiting cellular proliferation in hyperproliferative cell types. To study the effects of these compounds, an assay was developed to differentiate the effects of the compounds on proliferating versus confluent cells. The assay design generates a proliferating density 24 hours after seeding and provides a 3-day active cell growth/doubling window in which to gauge the anti-proliferative effect of the compounds described herein. […] In this 3-day growth window, cell number increases with daily doublings across the 72-hour period (see FIG. 1).
(§2) In each assay design, compounds were added at the 24-hour timepoint after cell seeding. The effect of the compounds, relative to vehicle control and to VelCade (a proteasome inhibitor approved in the U.S. for treating relapsed multiple myeloma and mantle cell lymphoma) as a positive control, was assessed across the 3-day growth window for proliferating cells and on an already near confluent culture of cells for the same time period. Normal cells were handled in the same manner, with some adjustment of seeding density needed in select cases. […]
(§3) Cell number at the end of the assay was determined using the CELLTITER-GLO Luminescent Cell Viability Assay (Promega; Madison, Wis.). The CELLTITER-GLO Luminescent Cell Viability Assay is a homogeneous method of determining the number of viable cells in culture based on quantitation of the ATP present, an indicator of metabolically active cells. IC50 values were calculated. […]
(§4) For a typical screening experiment to identify the compounds, cells were seeded into 96- or 384-well microtiter plates at plating densities pre-determined for each cell line to ensure drug exposure occurs during the proliferative phase well before confluency is reached. […] Values were calculated for each of these three parameters if the level of activity was reached; however, if the effect was not reached or was exceeded, the value for that parameter was expressed as greater or less than the maximum or minimum concentration tested.

c-Jun phosphorylation = experiment: Intracellular signaling molecule phospho-array; format: cell-based; conditions: human hyperproliferative GBM cancer cells; effect requiring 24 hours
Procedure: An intracellular signaling molecule phospho-array was performed in compound-treated human hyperproliferative GBM cancer cells and in vehicle-treated human hyperproliferative GBM cancer cells. The tested compounds included Compound DBM 228 (002-N8-28), Compound DBM 328 (003-8COOH), and Compound DBM 308 (003-8Cl). DMSO served as the vehicle control. The numbers reflect pairs of spots in the typical dot blots that correspond to major kinases and other signaling proteins. Compound DBM 328 (003-8COOH) is a negative control for this array experiment to complement the DMSO vehicle control.

U251MG = experiment: Complementary DBM in vitro profiling: U251MG (CNS Cancer); format: cell-based
Procedure: as §1, §2, §3, §4

NCI-H23 = experiment: NCI 60 panel: NCI-H23 (Non-Small Cell Lung Cancer); format: cell-based
U118MG = experiment: Complementary DBM in vitro profiling: U118MG (CNS Cancer); format: cell-based
Procedure: as §1, §2, §3, §4

OVCAR-5 = experiment: NCI 60 panel: OVCAR-5 (Ovarian Cancer); format: cell-based
HT29 = experiment: NCI 60 panel: HT29 (Colon Cancer); format: cell-based
RXF 393 = experiment: NCI 60 panel: RXF 393 (Renal Cancer); format: cell-based
ARH-77 = experiment: Complementary DBM in vitro profiling: ARH-77 (Hematologic Cancer); format: cell-based
Procedure: as §1, §2, §3, §4

SK-MEL-2 = experiment: NCI 60 panel: SK-MEL-2 (Melanoma); format: cell-based
MCF7 = experiment: NCI 60 panel: MCF7 (Breast Cancer); format: cell-based
MALME-3M = experiment: NCI 60 panel: MALME-3M (Melanoma); format: cell-based
MDA-MB-231 = experiment: NCI 60 panel: MDA-MB-231 (Breast Cancer); format: cell-based
U266 = experiment: Complementary DBM in vitro profiling: U266 (Hematologic Cancer); format: cell-based
Procedure: as §1, §2, §3, §4

K-562 = experiment: NCI 60 panel: K-562 (Leukemia); format: cell-based
T-47D = experiment: NCI 60 panel: T-47D (Breast Cancer); format: cell-based
MDA-MB-468 = experiment: NCI 60 panel: MDA-MB-468 (Breast Cancer); format: cell-based
SK-OV-3 = tested on: SK-OV-3
Description: TGI means the drug concentration resulting in total growth inhibition or “cytostasis.” LC50 is the concentration of drug resulting in a 50% reduction in the measured cytosolic ATP at the end of the drug treatment as compared to that at the beginning, indicating a net loss of cells following treatment (cytotoxicity).
A major limitation with the anti-mitotic drugs in particular and in conventional chemotherapeutics in general, is their susceptibility to cellular mechanisms of adaptive/intrinsic multi-drug resistance (i.e., MDR efflux pumps such as p-glycoprotein, MRP1).

[1] = read-out: LC50 (the source's name)

Which GI50 (NCI-H322M) does the source give for COc1ccccc1Nc1nc(-c2cc3cccc(N)c3oc2=O)cs1 [Compound DBM 228] here?
The GI50 was 0.672 µM.

What about the TGI (NCI-H322M) of the same compound?
The TGI was 25.9 µM.

What about the CC50 (NCI-H322M; [1]) of the same compound?
Its CC50 is 93.3 µM.

What about the GI50 (LOX IMVI) of the same compound?
Its GI50 is 0.9 µM.

What about the TGI (LOX IMVI) of the same compound?
Its TGI is 50.8 µM.

And the CC50 (LOX IMVI; [1])?
Its CC50 is > 100 µM.

What about the GI50 (FaDu) of the same compound?
Its GI50 is 1.4 µM.

And the TGI (FaDu)?
Its TGI is 8.74 µM.

What about the CC50 (FaDu; [1]) of the same compound?
The CC50 was 27.5 µM.

And the “effect on c-Jun phosphorylation, in words” value (c-Jun phosphorylation)?
Its value is “potentiation of c-Jun phosphorylation”.

What about the GI50 (U251MG) of the same compound?
The GI50 was 0.197 µM.

And the TGI (U251MG)?
Its TGI is >30 µM.

What about the CC50 (U251MG; [1]) of the same compound?
Its CC50 is > 30 µM.

What about the GI50 (NCI-H23) of the same compound?
The GI50 was 0.504 µM.

And the TGI (NCI-H23)?
The TGI was 15.8 µM.

What about the CC50 (NCI-H23; [1]) of the same compound?
Its CC50 is 63.1 µM.

What about the GI50 (U118MG) of the same compound?
The GI50 was 2.71 µM.

And the TGI (U118MG)?
Its TGI is 7.85 µM.

What about the CC50 (U118MG; [1]) of the same compound?
Its CC50 is > 30 µM.

What about the GI50 (OVCAR-5) of the same compound?
The GI50 was 0.592 µM.

And the TGI (OVCAR-5)?
Its TGI is 15.7 µM.

And the CC50 (OVCAR-5; [1])?
The CC50 was 51.9 µM.

What about the GI50 (HT29) of the same compound?
The GI50 was 0.308 µM.

And the TGI (HT29)?
The TGI was 1.6 µM.

What about the CC50 (HT29; [1]) of the same compound?
Its CC50 is 24.7 µM.

What about the GI50 (RXF 393) of the same compound?
The GI50 was 0.218 µM.

And the TGI (RXF 393)?
Its TGI is 15.2 µM.

And the CC50 (RXF 393; [1])?
Its CC50 is 52.6 µM.

What about the GI50 (ARH-77) of the same compound?
The GI50 was 0.154 µM.

What about the TGI (ARH-77) of the same compound?
Its TGI is 0.339 µM.

What about the CC50 (ARH-77; [1]) of the same compound?
The CC50 was > 30 µM.

And the GI50 (SK-MEL-2)?
Its GI50 is 0.086 µM.

What about the TGI (SK-MEL-2) of the same compound?
The TGI was 28.4 µM.

And the CC50 (SK-MEL-2; [1])?
Its CC50 is 99.5 µM.

And the GI50 (MCF7)?
The GI50 was 0.0545 µM.

What about the TGI (MCF7) of the same compound?
Its TGI is >100 µM.

What about the CC50 (MCF7; [1]) of the same compound?
The CC50 was > 100 µM.

What about the GI50 (MALME-3M) of the same compound?
Its GI50 is 16.8 µM.

What about the TGI (MALME-3M) of the same compound?
Its TGI is 49.6 µM.

And the CC50 (MALME-3M; [1])?
The CC50 was > 100 µM.

What about the GI50 (MDA-MB-231) of the same compound?
The GI50 was 1.37 µM.

What about the TGI (MDA-MB-231) of the same compound?
The TGI was 12 µM.

What about the CC50 (MDA-MB-231; [1]) of the same compound?
The CC50 was > 100 µM.

What about the GI50 (U266) of the same compound?
The GI50 was 0.0796 µM.

And the TGI (U266)?
The TGI was 0.116 µM.

And the CC50 (U266; [1])?
The CC50 was 0.161 µM.

What about the GI50 (K-562) of the same compound?
The GI50 was 0.043 µM.

And the TGI (K-562)?
The TGI was 16.1 µM.

And the CC50 (K-562; [1])?
The CC50 was > 100 µM.

What about the TGI (T-47D) of the same compound?
The TGI was 55.9 µM.

And the CC50 (T-47D; [1])?
Its CC50 is > 100 µM.

What about the GI50 (MDA-MB-468) of the same compound?
The GI50 was 0.0471 µM.

What about the TGI (MDA-MB-468) of the same compound?
Its TGI is 0.8 µM.

What about the CC50 (MDA-MB-468; [1]) of the same compound?
The CC50 was 60.9 µM.

What about the CC50 (SK-OV-3) of the same compound?
Its CC50 is > 100 µM.

And the GI50 (SK-OV-3; SK-OV-3)?
The GI50 was 0.41 µM.

What about the TGI (SK-OV-3; SK-OV-3) of the same compound?
Its TGI is 22 µM.

And the GI50 (SK-OV-3; SK-OV-3, as stated in text)?
Its GI50 is 0.33 µM.

From patent US10369145B2, “Coumarin derivatives and methods of use in treating hyperproliferative diseases” (DISCOVERYBIOMED, INC., priority 2013, dated 2019)
